In one series the test system is Replicon (1a). The series can be described thus: microbe, parasite or virus in culture. The series is classed as cell-based, HCV. The settings on record: Hepatitis C virus; 1a replicon, marked (1a) in the cell. (In antiviral work, replicon cells carry a viral genome segment that copies itself.)
The test system of a further series is replicon cells. The experiment in a line: Cytotoxicity in replicon cells (MTS assay). The settings on record: CC50, MTS assay, three days post dosing.

Molecules are shown by their SMILES.

In general, EC50 refers to the concentration at which the effect is half-maximal. `CC(C)OC(=O)[C@H](C)NP(=O)(OC[C@H]1O[C@@H](n2ccc(N)nc2=O)[C@](C)(C#N)[C@@H]1O)Oc1ccccc1` (some centres unmarked) [drawing 363]: the EC50 in the series with Replicon (1a) was determined as 900 nM. This molecule also yielded a Cytotoxicity in the series on replicon cells of more than 100 µM.

The record behind these values is patent publication US9150603B2, “2′-cyano substituted nucleoside derivatives and methods of use thereof useful for the treatment of viral diseases” (priority 2011, dated 2015).
